Reference: US6949353B2, “Capping enzyme of flavivirus and utilization of this protein in a process to test drugs with antiviral properties” (priority 2001, dated 2005)

Key:
[1] = molecular target: T1, CEF (Capping Enzyme of Flavivirus) (Dengue virus type 2, UniProt P14340); test: UV-crosslinking of α-32P-GTP (or α-32P-ATP) to CEF, direct binding; parameters: species or system Dengue virus type 2 (New Guinea)
T1 construct: is a thirty-three kDa N-terminal domain of the RNA-dependent RNA polymerase; made in house; host or cells: E. coli (vector pQE30)
Experimental: In the drawings, as noted above, FIGS. 1A and 1B are a pair of photographs of gel electrophoresis. […] 2 μg of CEF was incubated with 50 μM (1 μCi) of either α-^32P-GTP (lane 1, 2, 5, 6) or α-^32P-ATP (lanes 3, 4) in 50 mM Tris pH 7.6, 5 mM DTT in the presence (lane 1, 3-6)) or absence (lane 2) of 5 mM Mg^2+. The sample was cross-linked using UV irradiation (254 nm), boiled for 5 min, and subjected to denaturing gel electrophoresis. Products were analyzed and quantified using photostimulable plates and a FujiImager. Bacteriophage T4 DNA ligase served as a positive control (lane 5). The F25A variant of CEF was purified under the same conditions as those of wild-type CEF. Upper panels show the comassie-blue stained gels, and lower panels the corresponding autoradiographic analysis. […] The mixture was boiled for 5 min, subjected to denaturing gel electrophoresis, and the gel analyzed and quantified as in panel A. Upper panels show the comassie-blue stained gels, and lower panels the corresponding autoradiographic analysis. […]
The binding affinity constant of GTP to CEF can be easily determined using a fixed concentration of CEF and increasing concentrations of radiolabeled GTP as described in FIG. 1A. […]

[2] = molecular target: T1, CEF (Capping Enzyme of Flavivirus); test: Competition with α-32P-GTP for covalent binding to CEF (no UV, gel electrophoresis/autoradiography); parameters: species or system Dengue virus type 2 (New Guinea); conditions: 0-1000 μM competitor, 10 min before α-32P-GTP, with magnesium
Experimental: In the drawings, as noted above, FIGS. 1A and 1B are a pair of photographs of gel electrophoresis. […] 2 μg of CEF was incubated with 50 μM (1 μCi) of either α-^32P-GTP (lane 1, 2, 5, 6) or α-^32P-ATP (lanes 3, 4) in 50 mM Tris pH 7.6, 5 mM DTT in the presence (lane 1, 3-6)) or absence (lane 2) of 5 mM Mg^2+. The sample was cross-linked using UV irradiation (254 nm), boiled for 5 min, and subjected to denaturing gel electrophoresis. Products were analyzed and quantified using photostimulable plates and a FujiImager. Bacteriophage T4 DNA ligase served as a positive control (lane 5). The F25A variant of CEF was purified under the same conditions as those of wild-type CEF. Upper panels show the comassie-blue stained gels, and lower panels the corresponding autoradiographic analysis. […] CEF was incubated during 10 min with increasing concentrations of Ribavirin 5′-triphosphate (0-50-250-500-750-1000 μM, lanes 1- to 6, respectively) before addition of α-^32P-GTP to the reaction mixture and further incubation for 20 min. The mixture was boiled for 5 min, subjected to denaturing gel electrophoresis, and the gel analyzed and quantified as in panel A. Upper panels show the comassie-blue stained gels, and lower panels the corresponding autoradiographic analysis. Ribavirin: Ribavirin 5′-triphosphate; Lig: Bacteriophage T4 DNA ligase. […]

[3] = molecular target: T1, CEF (Capping Enzyme of Flavivirus); test: Competition with radiolabeled GTP for CEF, CEF-GTP complex assayed by UV-crosslinking; format: binding, Dengue virus type 2 (New Guinea)
Experimental: The invention can also be useful in methods for determining the inhibitory power of a biologically active compound acting as a competitive inhibitor of GTP comprising: • a) incubating CEF with radiolabeled GTP, • b) adding selected different concentrations of the biologically active compound, • c) assaying resulting radiolabeled CEF-GTP complex produced from the incubation, • d) quantifying an amount of radiolabeled CEF-GTP complex produced from the assay, • e) comparing the amount to a binding affinity constant of GTP to CEF, and • f) determining the inhibitory power of the biologically active compound.
More particularly, the incubating step in the methods of the invention is conducted at about 52 μM of GTP. Selected different concentrations of GTP are about 0 μM, about 10 μM, about 20 μM, about 50 μM, about 100 μM, about 200 μM, about 300 μM, about 500 μM, and about 800 μM. Assaying in the methods of the invention comprises UV-crosslinking of α-^32P-GTP to CEF.
The CEF-GTP complex is then assayed using UV-crosslinking as described above. If acyclovir 5′triphosphate competes with radiolabeled GTP for the CEF active-site, acyclovir 5′triphosphate will replace GTP in the active-site.

Structure (SMILES): Nc1nc2c(ncn2[C@@H]2O[C@H](COP(=O)(O)OP(=O)(O)OP(=O)(O)O)[C@@H](O)[C@H]2O)c(=O)[nH]1 [GTP]
- Kd ([1]; fixed CEF, increasing radiolabeled GTP, hyperbolic saturation, read-out: binding affinity constant Kd of GTP to CEF): 52 µM

Structure (SMILES): NC(=O)c1ncn([C@@H]2O[C@H](COP(=O)(O)OP(=O)(O)OP(=O)(O)O)[C@@H](O)[C@H]2O)n1 [Ribavirin 5′-triphosphate]
- effect on GTP-binding to CEF [2]: able to decrease GTP-binding to CEP

Structure (SMILES): Nc1nc2c(ncn2COCCOP(=O)(O)OP(=O)(O)OP(=O)(O)O)c(=O)[nH]1 [acyclovir 5′-triphosphate]
- Kd ([3]; CEF first incubated with about 52 μM GTP, increasing competitor, read-out: relative binding affinity constant for binding to CEF): ~79 µM
- inhibition of the CEF enzyme (in words) ([3]; CEF-acyclovir 5′-triphosphate binding assay): good inhibitor of the CEF enzyme

Structure (SMILES): Nc1ncnc2c1ncn2[C@@H]1O[C@H](COP(=O)(O)OP(=O)(O)OP(=O)(O)O)[C@@H](O)[C@H]1O [α-^32P-ATP]
- labeling of CEF by radiolabeled nucleotide after UV irradiation ([1]; 50 μM nucleotide, 2 μg CEF, UV 254 nm): unable to label CEF significantly
